For 29 compounds, AUC, Cmax and IC50 results are on record in patent US20250206759A1, “FUSED RING COMPOUND, PHARMACEUTICAL COMPOSITION CONTAINING SAME, AND USE OF FUSED RING COMPOUND” (CHENGDU HYPERWAY PHARMACEUTICALS CO., LTD., priority 2022, published 2025).

A short description of data set [1]: Pharmacokinetics of compounds in rats (oral). The data set is classed as in vivo, SD rats. The following applies: male SD rats. As for the experimental part:
Male SD rats were purchased from Shanghai SIPPR-Bk Lab Animal Co., Ltd. Each test compound was administered orally (3 rats per group) once to SD rats for pharmacokinetic study. The test compounds were prepared on the day of administration. The test compounds were suspended in 5% DMSO+95% saline, and then vortexed for 2 min and ultrasonicated for 5 min to prepare the administration system. The animals were fasted for 10-14 h before oral administration, and the feeding was resumed 4 h after administration. After oral administration by gavage, pharmacokinetic samples were collected from SD rats through the jugular vein. The collection time points were: before administration, 15 min, 30 min, 1 h, 2 h, 4 h, 6 h, 8 h and 24 h after administration. Three whole blood samples were collected at each time point, with a collection volume of about 0.2 mL, and anticoagulated with sodium heparin. After blood samples were collected, they were immediately placed on ice and centrifuged to separate plasma within 1 hour (centrifugation conditions: 6800 rpm, 6 min, 2-8° C.). The collected plasma was stored in a −80° C. refrigerator before analysis.

Data set [2] concerns KRas G12D-mediated ERK phosphorylation. Description: Inhibition of KRas G12D-mediated ERK phosphorylation in AGS cells. The data set is classed as cell-based. The following applies: Homo sapiens, AGS, read-out: AGS-pERK IC50. As for the experimental part:
Day 1: AGS cells were seeded into 384-well cell culture plates and cultured overnight in a 37° C., 5% CO2 incubator.
Day 2: The compounds were added to the plates using Echo550 and incubated for 3 h in a 37° C., 5% CO2 incubator. Then cells were fixed with paraformaldehyde, permeated with methanol, and blocked with the blocking solution. Finally, a mixed solution of primary antibodies (rabbit anti pERK, mouse anti GAPDH) was added, and the mixture was incubated at 4° C. overnight.
Day 3: The mixed solution of primary antibodies was discarded, and a mixed solution of secondary antibodies (goat anti rabbit 800CW, goat anti mouse 680RD) was added. The mixture was incubated at room temperature in the dark. Finally, the cell culture plate was washed with PBST, and then inverted for 1 minute of centrifugation. The fluorescence signal values were read with Odyssey CLx.
ERK phosphorylation was calculated according to the following formula: […]
X: log value of compound concentration.
Y: average value of relative expression of p-ERK between replicate wells.

[3] abbreviates: male, SD, rat, plasma, po, 100 mg/kg, 100 mg/kg, read-out: AUC.
Setting [4] is: male, SD, rat, plasma, po, 100 mg/kg, 100 mg/kg, read-out: Cmax.
Where [5] appears, read: male, SD, rat, plasma, po, 10 mg/kg, 10 mg/kg, read-out: AUC.
The mark [6] stands for this setting: male, SD, rat, plasma, po, 10 mg/kg, 10 mg/kg, read-out: Cmax.

pIC50: −log10 of the molar value. Like-named read-outs stand apart in the source and are kept apart here.

As to `Oc1cc(-c2ncc3c(N4C[C@H]5CC[C@@H](C4)N5)nc(OCC45CCCN4C(c4ccc(C6=CCOCC6)cc4)CC5)nc3c2F)c2ccccc2c1` (stereo partly drawn) [Example 45, 4-(4-((1R,5S)-3,8-diazabicyclo[3.2.1]octan-3-yl)-2-((3-(4-(3,6-dihydro-2H-pyran-4-yl)phenyl)tetrahydro-1H-pyrrolidin-7a(5H)-yl)methoxy)-8-fluoropyrido[4,3-d]pyrimidin-7-yl)naphthalen-2-ol], in data set [1] (10 mg/kg), the AUC stood at 94 ng·h/mL and the Cmax is 21 ng/mL.

Regarding `COc1ccc([C@H]2CCC3(COc4nc(N5CC6CCC(C5)N6)c5cnc(-c6cc(O)cc7ccc(F)c(F)c67)c(F)c5n4)CCCN23)cc1OC(F)(F)F` (stereo partly drawn) [Example 216], the pIC50 in data set [2] is 8.80.

On to `C#Cc1c(F)ccc2cc(O)cc(-c3ncc4c(N5CC6CCC(C5)N6)nc(OCC56CCCN5C(c5ccc7c(c5)COC7)CC6)nc4c3F)c12` (stereo not drawn) [Example 178], for which, in data set [2], the pIC50 is 8.42.

As for `Oc1cc(-c2ncc3c(N4CC5CCC(C4)N5)nc(OCC45CCCN4[C@@H](c4ccc6ccccc6c4)CC5)nc3c2F)c2c(F)c(F)ccc2c1` (mixture of isomers) [Example 218], the pIC50 in data set [2] is 8.62.

Regarding `Oc1cc(-c2ncc3c(N4CC5CCC(C4)N5)nc(OCC45CCCN4[C@@H](c4ccc(C(F)(F)F)cc4)CC5)nc3c2F)c2c(F)c(F)ccc2c1` (single isomer, unassigned) [Example 202], the pIC50 in data set [2] is 8.74.

As for `Cc1cc(N)cc(-c2ncc3c(N4CC5CCC(C4)N5)nc(OCC45CCCN4[C@@H](c4ccc6c(c4)OC(F)(F)O6)CC5)nc3c2F)c1C(F)(F)F` (mixture of isomers) [Example 235], the pIC50 in data set [2] is 7.89.

With `Nc1cc(Cl)c(C(F)(F)F)c(-c2ncc3c(N4CC5CCC(C4)N5)nc(OCC45CCCN4C(c4ccc(F)c(F)c4)CC5)nc3c2F)c1` (stereo not drawn) [Example 244], the pIC50 in data set [2] is 8.19.

`Oc1cc(-c2ncc3c(N4CC5CCC(C4)N5)nc(OCC45CCCN4C(c4ccc(-c6ccc(F)cc6)cc4)CC5)nc3c2F)c2c(F)c(F)ccc2c1` (stereo not drawn) [Example 190]: in data set [1] (setting [3]), the AUC came out at 939 ng·h/mL. The Cmax in data set [1] (setting [4]) was 66 ng/mL.

Turning to `[2H]C1([2H])OCc2cc(C3CCC4(COc5nc(N6C[C@H]7CC[C@@H](C6)N7)c6cnc(-c7cc(O)cc8ccc(F)c(F)c78)c(F)c6n5)CCCN34)ccc21` (stereo partly drawn) [Example 151, 4-(4-((1R,5S)-3,8-diazabicyclo[3.2.1]octan-3-yl)-2-((3-(1,3-dihydroisobenzofuran-5-yl-1,1-d2)tetrahydro-1H-pyrrolizin-7a(5H)-yl)methoxy)-8-fluoropyrido[4,3-d]pyrimidin-7-yl)-5,6-difluoronaphthalen-2-ol], in data set [2], the pIC50 was 8.12.

For `C#Cc1c(F)ccc2cc(O)cc(-c3ncc4c(N5CC6CCC(C5)N6)nc(OCC56CCCN5[C@@H](c5ccc(OC(F)(F)F)cc5)CC6)nc4c3F)c12` (mixture of isomers) [Example 214], the pIC50 in data set [2] was 9.00.

As for `C#Cc1c(F)ccc2cc(O)cc(-c3ncc4c(N5CC6CCC(C5)N6)nc(OCC56CCCN5[C@@H](c5ccc(F)cc5)CC6)nc4c3F)c12` (single isomer, unassigned) [Example 196], the pIC50 in data set [2] is 8.85.

For `Nc1ccc(OC(F)(F)F)c(-c2ncc3c(N4CC5CCC(C4)N5)nc(OC[C@]45CCCN4C(c4ccc6c(c4)OC(F)(F)O6)CC5)nc3c2F)c1` (stereo partly drawn) [Example 163, 3-(4-((1R,5S)-3,8-diazabicyclo[3.2.1]octan-3-yl)-2-((3-(2,2-difluorobenzo[d][1,3]dioxy-5-yl)tetrahydro-1H-pyrrolizin-7a(5H)-yl)methoxy)-8-fluoropyridin[4,3d]pyrimidin-7-yl)-4-(trifluoromethoxy)], the AUC in data set [1] (setting [3]) stood at 2750 ng·h/mL. Also, the Cmax in data set [1] (setting [4]) turned out to be 388 ng/mL.

For the compound `Oc1cc(-c2ncc3c(N4CC5CCC(C4)N5)nc(OCC45CCCN4C(c4ccc(C(F)(F)F)cc4)CC5)nc3c2F)c2ccccc2c1` (stereo not drawn) [Example 170], the AUC in data set [1] (setting [5]) is 533 ng·h/mL. In addition, in data set [1] (setting [6]), the Cmax stood at 39 ng/mL.

In the case of `C#Cc1c(F)ccc2cc(O)cc(-c3ncc4c(N5CC6CCC(C5)N6)nc(OCC56CCCN5[C@@H](c5ccc(C(F)(F)F)cc5)CC6)nc4c3F)c12` (single isomer, unassigned) [Example 204], the pIC50 in data set [2] is 9.11.

Regarding `COc1cc([C@H]2CCC3(COc4nc(N5CC6CCC(C5)N6)c5cnc(-c6cc(O)cc7ccc(F)c(F)c67)c(F)c5n4)CCCN23)ccc1C(F)(F)F` (mixture of isomers) [Example 228], in data set [2], the negative-log IC50 (pIC50) is 8.72.

For `Cc1ccc([C@H]2CCC3(COc4nc(N5CC6CCC(C5)N6)c5cnc(-c6cc(O)cc7ccc(F)c(F)c67)c(F)c5n4)CCCN23)cc1` (mixture of isomers) [Example 213], the pIC50 in data set [2] is 8.74.

Turning to `Oc1cc(-c2ncc3c(N4CC5CCC(C4)N5)nc(OCC45CCCN4C(c4ccc(OC(F)(F)F)cc4)CC5)nc3c2F)c2ccccc2c1` (stereo not drawn) [Example 118], the AUC in data set [1] (setting [5]) was determined as 224 ng·h/mL; in data set [1] (setting [3]), 1290 ng·h/mL. Moreover, the figures for the Cmax in data set [1] (setting [6]) and in data set [1] (setting [4]) were 31 ng/mL and 115 ng/mL, respectively.

Regarding `Oc1cc(-c2ncc3c(N4C[C@H]5CC[C@@H](C4)N5)nc(OCC45CCC(c6ccc(OC(F)(F)F)cc6)N4CC4(CC4)C5)nc3c2F)c2ccccc2c1` (stereo partly drawn) [Example 143, 4-(4-((1R,5S)-3,8-diazabicyclo[3.2.1]octan-3-yl)-8-fluoro-2-((5′-(4-(trifluoromethoxy)phenyl)dihydro-1′H,3′H-spiro[cyclopropan-1,2′-pyrrolizin]-7a′(5′H)-yl)methoxy]pyrido[4,3d]pyrimidin-7-yl)naphthalen-2-ol], in data set [1] (10 mg/kg), the exposure (AUC) is 410 ng·h/mL and the Cmax came to 32 ng/mL.

Take `Nc1cc(F)c(C(F)(F)F)c(-c2ncc3c(N4CC5CCC(C4)N5)nc(OCC45CCCN4C(c4ccc6c(c4)OC(F)(F)O6)CC5)nc3c2F)c1` (stereo not drawn) [Example 237]: the AUC in data set [1] (setting [3]) was found to be 1510 ng·h/mL. For the same compound, in data set [1] (setting [4]), the maximum concentration (Cmax) amounted to 362 ng/mL.

As for `Oc1cc(-c2ncc3c(N4CC5CCC(C4)C5(F)F)nc(OC[C@@]45CCCN4C[C@H](F)C5)nc3c2F)c2c(F)c(F)ccc2c1` [Example 86], the AUC in data set [1] (setting [5]) turned out to be 52 ng·h/mL. Further, in data set [1] (setting [6]), the Cmax is 21 ng/mL.

Regarding `Oc1cc(-c2ncc3c(N4CC5CCC(C4)N5)nc(OCC45CCCN4C(c4ccc6c(c4)OCO6)CC5)nc3c2F)c2c(F)c(F)ccc2c1` (stereo not drawn) [Example 114], in data set [2], the pIC50 is 7.85.

As for `Oc1cc(-c2ncc3c(N4CC5CCC(C4)N5)nc(OCC45CCCN4[C@@H](c4ccc6c(c4)COC6)CC5)nc3c2F)c2c(F)c(F)ccc2c1` (mixture of isomers) [Example 217], the pIC50 in data set [2] was 8.89.

Consider `Oc1cc(-c2ncc3c(N4CC5CCC(C4)N5)nc(OCC45CCCN4C(c4ccc(OC(F)(F)F)cc4)CC5)nc3c2F)c2c(F)c(F)ccc2c1` (stereo not drawn) [Example 210], for which, in data set [1] (setting [3]), the AUC amounted to 246 ng·h/mL. For the same compound, the Cmax in data set [1] (setting [4]) turned out to be 145 ng/mL.

Take `Oc1cc(-c2ncc3c(N4CC5CCC(C4)N5)nc(OCC45CCCN4[C@@H](c4ccc(C(F)(F)F)c(Cl)c4)CC5)nc3c2F)c2c(F)c(F)ccc2c1` (mixture of isomers) [Example 215]: the AUC in data set [1] (setting [3]) was found to be 471 ng·h/mL. Moreover, the highest concentration (Cmax) in data set [1] (setting [4]) is 128 ng/mL.

`Oc1cc(-c2ncc3c(N4CC5CCC(C4)N5)nc(OCC45CCCN4C(c4ccc6occc6c4)CC5)nc3c2F)c2ccccc2c1` (stereo not drawn) [Example 131]: the AUC in data set [1] (setting [5]) was 57 ng·h/mL. For the same compound, the Cmax in data set [1] (setting [6]) amounted to 13 ng/mL.

Regarding `Oc1cc(-c2ncc3c(N4CC5CCC(C4)N5)nc(OCC45CCCN4[C@@H](c4ccc(F)c(F)c4)CC5)nc3c2F)c2c(F)c(F)ccc2c1` (mixture of isomers) [Example 224], the pIC50 in data set [2] was 9.15.

In the case of `Oc1cc(-c2ncc3c(N4C[C@H]5CC[C@@H](C4)N5)nc(OCC45CCCN4C(c4ccc6c(c4)OC(F)(F)O6)CC5)nc3c2F)c2c(F)c(F)ccc2c1` (stereo partly drawn) [Example 140, 4-(4-((1R,5S)-3,8-diazabicyclo[3.2.1]octan-3-yl)-2-((3-(2,2-difluorobenzo[d][1,3]dioxy-5-yl)tetrahydro-1H-pyrrolizin-7a(5H)-yl)methoxy)-8-fluoropyridin[4,3d]pyrimidin-7-yl)-5,6-difluoronaphthalen-2-ol], in data set [1] (100 mg/kg), the AUC was determined as 444 ng·h/mL and the Cmax is 113 ng/mL.

Take `Oc1cc(-c2ncc3c(N4CC5CCC(C4)N5)nc(OCC45CCCN4C(c4ccc6c(c4)OC(F)(F)O6)CC5)nc3c2F)c2ccccc2c1` (stereo not drawn) [Example 132]: the exposure (AUC) in data set [1] (setting [5]) was determined as 240 ng·h/mL. For the same compound, the peak concentration (Cmax) in data set [1] (setting [6]) turned out to be 29 ng/mL.

In the case of `Nc1ccc(C(F)(F)F)c(-c2ncc3c(N4CC5CCC(C4)N5)nc(OCC45CCCN4[C@@H](c4ccc6c(c4)OC(F)(F)O6)CC5)nc3c2F)c1` (mixture of isomers) [Example 234], in data set [1] (setting [3]), the AUC worked out at 1190 ng·h/mL. In data set [1] (setting [4]), the Cmax was 182 ng/mL.
